These results are taken from paper PMC11087398, “Evaluation of 1,10-phenanthroline-based hydroxamate derivative as dual histone deacetylases/ribonucleotide reductase inhibitor with antitumor activities” (DARU Journal of Pharmaceutical Sciences, 2024).

Read-outs that look alike come from different tables or passages of the source.

One data set relates to Cal27. As to the kind of experiment: MTT cell viability assay. Conditions: mean ± SD, read-out: Antiproliferative activity IC50, Cal27. The data set is classed as cell-based, human. The protocol:
(§1) Human cancer cells (SiHa, HepG2, MCF7, Cal27) were obtained from ATCC, while foreskin fibroblast cells were generated at the Manipal School of Life Sciences. Cells were cultured in DMEM with 10% FBS, maintained in an Eppendorf CellXpert® C170 incubator at 37 °C with 5% CO2, and medium was renewed every 48–72 h.
(§2) Cancer cells (1 × 10^5 cells/mL) and fibroblast cells (5 × 10^4 cells/mL) were seeded in 96-well plates. Test compounds, dissolved in DMSO and diluted in DMEM with 10% FBS, were treated for 48 h. MTT (5 mg/mL) was added, and after 4 h, absorbance was measured at 570 and 630 nm using a VARIOSKAN™ 3001 multimode multiplate reader.
(Tetrazolium assays rely on reduction of a dye to a coloured formazan, in cell work by metabolically active cells.)

The next data set relates to HepG2. The data set is described as follows: MTT cell viability assay. The data set is classed as cell-based, human. Conditions: mean ± SD, read-out: Antiproliferative activity IC50, HepG2. As for the experimental part: as §1, §2
A further data set has as its system MCF7. As to the kind of experiment: MTT cell viability assay. The data set is classed as cell-based, human. Conditions: mean ± SD, read-out: Antiproliferative activity IC50, MCF7. As for the experimental part: as §1, §2
In a further data set the test system is SiHa. The data set is described as follows: MTT cell viability assay. Conditions: 48 h, mean ± SD, read-out: Antiproliferative activity IC50, SiHa. In kind it is cell-based, human. As for the experimental part:
as §1, §2

Data set [1] relates to foreskin fibroblast cells. As to the kind of experiment: MTT cell viability assay. In kind it is cell-based. Conditions: 48 h, normal human fibroblast cells, mean ± SD, read-out: Antiproliferative activity IC50, Fibroblast. The protocol:
as §1, §2

The test system of data set [2] is SiHa cells. The data set is described as follows: Anchorage-dependent colony formation assay. In kind it is cell-based, human. Conditions: IC50 concentration of each compound. As for the experimental part: SiHa cells (500 cells/well) were seeded in 6 cm plates. After 24 h, cells were treated with the IC50 concentration of test compounds and incubated for 21 days with media changes every three days. On day 21, colonies were stained with 0.4% crystal violet for 10 min, washed twice with PBS, and then counted.

Data set [3] has as its system SiHa cells. The data set is described as follows: Apoptosis assay (Annexin V/propidium iodide flow cytometry). The data set is classed as cell-based, human. Conditions: 48 h. The protocol:
SiHa cells were cultured at a density of 1 × 10^6 cells/mL in 10 cm plates. Upon reaching 80% confluency, cells were subjected to 48 h treatment with test compounds (IC50 and IC70). Following two PBS washes, trypsinization, and suspension in Annexin V binding buffer, cells were incubated, stained with propidium iodide, and analyzed for apoptosis using Apoptosis Detection Kit I and Partec CyFlow Space with FloMax software (Germany).
Background: A flow cytometer gives signals particle by particle.

Data set [4] relates to SiHa cells. As to the kind of experiment: In vitro cell migration (scratch) assay. In kind it is cell-based, human. Conditions: IC50 concentration, 48 h post-wounding, control group 19.64%. As for the experimental part:
SiHa cells were cultured in 6-well plates using DMEM with 10% FBS until they formed a monolayer. A scratch was done on the cell monolayer by using a sterile 200 μL pipette tip. Subsequently, the cells were treated with the PA at IC50 concentration, and the extent of cell migration was assessed by analyzing the wound area at 0th, 24th, and 48th h time intervals using ImageJ software (Wayne Rasband, USA).

The test system of data set [5] is HDAC (SiHa cell nuclear extracts). The data set is described as follows: In vitro fluorescent HDAC assay. In kind it is biochemical, human. Conditions: substrate Boc-Lys(Ac)-AMC, read-out: HDAC inhibitory activity IC50. As for the experimental part:
In a black 96-well plate, HDAC assay buffer, varied concentrations of test compounds, and SiHa cell nucleus extract were combined and incubated for 30 min. The enzymatic reaction commenced with the addition of the fluorescent substrate, Boc-Lys(Ac)-AMC, and lasted for 2 h at 37 °C. Reaction termination involved adding a developer, followed by an additional incubation at room temperature for 10–15 min. Fluorescence intensity was assessed using a VARIOSKAN™ 3001 multimode multiplate reader at an excitation wavelength of 354 nm and emission wavelength of 450 nm.

Data set [6] has as its system RR (3H-thymidine incorporation into DNA of SiHa cells). The data set is described as follows: Inhibition of DNA synthesis (3H-thymidine incorporation) as RR activity. Conditions: Homo sapiens, 48 h treatment. In kind it is cell-based. The protocol:
SiHa cells (5 × 10^6) were treated with varying test compound concentrations for 48 h. Following incubation, cells were pulsed with 5 nM ^3H-thymidine for 30 min at 37 °C. After collection, washing, and total DNA extraction, radioactivity was quantified as counts per min (CPM) using a Tri-carb 2900TR liquid scintillation (Perkin Elmer, USA).

Data set [7] is described as follows: Partition coefficient 1-octanol/water. The data set is classed as physicochemical. Conditions: 1-octanol/water (MOPS buffer), pH 7.4; read-out: log (Kpart7.4), partition coefficient. The protocol:
The partition coefficient (Kpart) of PA was determined in a 1-octanol/water system. 1-octanol was added to MOPS buffer containing PA (IC50), and OD at 276 nm was measured before and after each addition. Kpart values were calculated..

Data set [8] deals with Acetyl-Histone H3 in SiHa cells. The data set is described as follows: Western blot of acetylated histone H3. The data set is classed as cell-based, human. Conditions: PA 10 and 20 µM, 48 h. The protocol:
SiHa cells (2 × 10^5 cells/well) were cultured in 6-well plates, treated with varied concentrations of test compounds for 48 h, and lysed in RIPA buffer. After centrifugation, protein content was quantified using Bradford assay. Protein extracts were subjected to SDS-PAGE and were transferred to the nitrocellulose membrane. Following blocking, membranes were probed with CST antibodies (Acetyl-Histone H3, B-Actin) at 1:3000 dilution and secondary anti-rabbit antibodies (1:5000 dilution). iBright™ CL1500 Imaging System captured the images.
A general note: Immunoblotting shows a protein as a band on a membrane.

Data set [9] has as its system intracellular dNTP levels in SiHa cells. The data set is described as follows: dNTP pool analysis (HPLC). In kind it is cell-based, human. Conditions: IC50 concentration. The protocol: Harvested duplicate samples (1 million cells each) were washed with ice-cold PBS, and an extraction solution (6.5: 3.5 of acetonitrile and water mixture with 100 mM formic acid) was added. After incubation and centrifugation, the solution was lyophilized, reconstituted in 100 µL HPLC buffer A, and analyzed on a Waters Symmetry C18 column using HPLC. A stepwise gradient of Buffer A and B was employed, with detection at 260 and 280 nm, as mentioned by Crona et al., in 2016 [34]. Quantification was based on peak area measurements in the chromatogram, providing relative quantification of the analyzed components.

The test system of data set [10] is SiHa cells. As to the kind of experiment: Cell cycle analysis (propidium iodide flow cytometry). In kind it is cell-based, human. Conditions: IC50 concentration, 48 h. An excerpt: After trypsinization, cells were fixed in 70% ethanol, treated with RNase-A, stained with propidium iodide, and analyzed using the Partec CyFlow Space with FloMax software (Germany).

The subject of data set [11] is SiHa cells. The data set is described as follows: Suppression of cytotoxicity by iron supplementation (FAC co-administration, MTT). In kind it is cell-based, human. Conditions: PA at IC50 with FAC 25, 50, 100 µM, MTT after 48 h.
Experimental: To confirm the intracellular Fe^3+ chelation ability of PA, three different concentrations (25, 50, 100 µM) of ferric ammonium citrate (FAC) with PA (IC50) were co-administered in SiHa cells, and the cell viability was assessed using MTT after 48 h.

As a reminder, the IC50 is the concentration that gives 50% inhibition. On to `c1cnc2c(c1)ccc1cccnc12` [1,10-Phenanthroline], for which the IC50 is 53 ± 2.18 µM with Cal27 (Homo sapiens, CAL-27, 48 h); over 100 µM in the data set with HepG2 (Homo sapiens, HepG2, 48 h); 48.8 ± 12 µM in the data set on MCF7 (Homo sapiens, MCF7, 48 h); 42.9 ± 2.53 µM in the data set with SiHa (Homo sapiens, SiHa); over 100 µM in data set [1].
In the case of `CC(=O)N(O)CCCCCNC(=O)CCC(=O)N(O)CCCCCNC(=O)CCC(=O)N(O)CCCCCN` [DFO, Deferoxamine], the IC50 is 46 ± 3.07 µM with Cal27 (Homo sapiens, CAL-27, 48 h); over 100 µM with HepG2 (Homo sapiens, HepG2, 48 h); over 100 µM in the data set with MCF7 (Homo sapiens, MCF7, 48 h); 71.5 ± 5.02 µM in the data set on SiHa (Homo sapiens, SiHa); over 100 µM in [1]. The “clonogenic efficiency (colony formation)” value in the data set on SiHa cells [2] amounted to 44.63%.
On to `NC(=O)NO` [HU, Hydroxyurea], for which the IC50 (in the data set on Cal27 (48 h); in the data set with HepG2 (48 h); in the data set on MCF7 (48 h); in the data set on SiHa; in [1]) was over 100 µM throughout.
In the case of `O=C(CCCCCCC(=O)Nc1cc2cccnc2c2ncccc12)NO` [PA, N^1-hydroxy-N^8-(1,10-phenanthrolin-5-yl)octanediamide], the IC50 was 51 ± 3.08 µM in the data set with Cal27 (Homo sapiens, CAL-27, 48 h); over 100 µM in the data set on HepG2 (Homo sapiens, HepG2, 48 h); over 100 µM in the data set on MCF7 (Homo sapiens, MCF7, 48 h); 16.4 ± 4.71 µM in the data set with SiHa (Homo sapiens, SiHa); over 100 µM in data set [1]; 10.8 µM in data set [5]. In addition, in data set [6], the IC50 stood at 9.34 µM. Further, the early apoptosis amounted to 3.63% in the data set on SiHa cells [3] (IC50 concentration) and 2.58% with SiHa cells [3] (IC70 concentration). The “clonogenic efficiency (colony formation)” value with SiHa cells [2] was determined as 1.99%. The wound area percentage in the data set with SiHa cells [4] is listed as 56.33%. For the same molecule, in data set [7], the logD was 0.82. Besides, in data set [8], the “acetylated Histone H3 levels (western blot)” value is given as “dose-dependent increase in acetylated Histone H3 levels”. The “intracellular dNTP levels” value in data set [9] is recorded as “marked decrease in intracellular dNTP levels”. Moreover, the cell cycle progression result with SiHa cells [10] was “increased the cell population at the S phase and a concentration-dependent elevation in the G2/M phase”. The “effect of ferric ammonium citrate (FAC) co-administration on cytotoxicity” value with SiHa cells [11] is “FAC reduced PA cell toxicity in a concentration-dependent manner”.
